In patent US20120010179A1, “Methods of using a thiazole derivative” (priority 2006, published 2012):

What was measured:
[1] = tested on: patients with COPD; experiment: Pharmacodynamic and safety assessments (ECG, vital signs, serum potassium, adverse events, laboratory), Example 1; type: in vivo, human
Description: Twelve-lead electrocardiograms (ECGs) were conducted after the subject had been resting and supine for ≧3 minutes. In addition to screening and pre-treatment baseline (Day 0) measurements, ECGs were also recorded at specific times during the treatment period. All 12-lead ECG monitors used for this study were calibrated and standardized. The ventricular rate, PR interval (the time elapsing between the beginning of the P wave and the beginning of the QRS interval in an electrocardiogram, corresponding to the electrical activity through the atria), QRS interval (the movement of electrical impulses through the ventricles), QT/QTc interval (the QT interval measures the time between the start of the Q wave and the end of the T wave in the heart's electrical cycle; QTc is a corrected QT interval, as determined by Fridericia's formula [QTcF] and Bazett's formula [QTcB]), and the overall ECG interpretation (normal or abnormal) were documented. Measurements were recorded prior to collection of any blood samples, where applicable. At least three original copies of each ECG (one each for the site, for the sponsor, and for the central ECG provider) were made. […]
Vital signs (heart rate and systolic blood pressure) were measured after the subject had been sitting for ≧3 minutes. […] Measurements were recorded prior to the collection of any blood samples, where applicable. […]

[2] = tested on: patients with COPD; experiment: Pulmonary function tests (trough and peak FEV1), tetomilast with Advair Diskus 250/50, parallel group study (Example 2); type: in vivo, human; design: Estimated Treatment Effect, change from baseline in trough FEV1 (tetomilast versus placebo) / Estimated Treatment Effect in Baseline Mean trough FEV1, Day 7 predose (tetomilast versus placebo) / Estimated Treatment Effect, change from baseline in peak FEV1 (tetomilast versus placebo): unit not given here
Description: Pulmonary function tests were conducted throughout the study to monitor the subjects' respiratory status. Flow volume curves were collected via spirometry. Combivent® (Boehringer Ingleheim Pharmaceuticals, Inc., Ridgefield Conn.), which was used for short-acting rescues as needed throughout the studies described below, was withheld for 6 hours prior to any spirometric testing. Spirometry testing was performed at screening, baseline (Day 0), and at specific times during the treatment period. Each subject could have up to 5 spirometric readings at any study time point. Spirometric readings were performed using equipment from the central provider, Quantum Research, Inc. (Louisville, Colo.). All spirometry readings were recorded and sent to Quantum Research, Inc. for analysis
For the spirometric readings, the best effort was reported as follows. The highest acceptable forced expiratory volume in one second (FEV1) value was selected as the “best” of the given test session. If two or more FEV1 values were tied as highest, the sum of FEV1 and forced vital capacity (FVC) for those efforts was used. If both conditions were equal between the two efforts, the values reported were taken from the effort that occurred first, chronologically, based on date and time of the effort.
This study was a multicenter, randomized, double-blind, placebo-controlled, parallel group, outpatient, phase 1B study of Advair Diskus® 250/50 (fluticasone propionate and salmeterol xinafoate, GlaxoSmithKline, Research Triangle Park, N.C.) administered concomitantly with oral placebo or 50 mg tetomilast (2×25 mg tablets) in patients with COPD. All patients underwent a minimum 28-day washout from short-acting inhaled corticosteroids, long-acting bronchodialators, and/or continuous oxygen therapy (>16 hours per day), and a minimum 7-day washout from beta2-agonists and/or oral theophylline. Patients were randomly assigned to one of the two treatment arms (oral tetomilast 50 mg or placebo) prior to dosing on Day 1, and were distributed 1:1 between the two groups according to a computer-generated randomization code provided by the Otsuka Maryland Research Institute (OMRI) Biostatistics Department. Randomization was performed using a central IVRS system and was centralized across study centers.
Subjects received 7 days of treatment with tetomilast 50 mg or placebo oral dose in treatment period 1. During treatment period 2, Days 8 through 35, concomitant inhaled Advair Diskus® 250/50 was added to the treatment regimen.
Subjects were instructed to take their oral study medication (tetomilast 50 mg or placebo) QD with 8 ounces of water immediately after breakfast for all study treatment days. Subjects assigned to the placebo group received two placebo tablets QD. Subjects assigned to the tetomilast group received 2×25 mg tetomilast tablets QD. On study Days 1-7, 14, 21, 28, and 35, subjects consumed their oral study medication (tetomilast 50 mg or placebo) at the clinic in the presence of the study staff.
The inhaled Advair Diskus® 250/50 was self-administered by subjects on all study days between Days 8 and 35, except for Days 14, 21, 28, and 35, when the medication was administered at the clinic in the presence of the study staff. Advair Diskus® 250/50 was administered twice daily (BID). The morning dose coincided with the timing of the oral dose (tetomilast 50 mg or placebo). The evening dose was taken 12 hours later. Dosing times were recorded in subject diaries.
Combivent® (Boehringer Ingleheim Pharmaceuticals, Inc., Ridgefield, Conn.) was provided by the sponsor for short-acting rescue use during the study. Combivent® was withheld for 6 hours prior to any PFTs. Combivent® was supplied as a metered-dose inhaler. Each actuation meters 21 μg of ipratropium bromide and 120 μg of albuterol sulfate from the valve and delivers […] of ipratropium bromide and 103 μg of albuterol sulfate (equivalent to 90 μg albuterol base) from the mouthpiece. […]

[3] = Baseline Day 1 predose, Day 7, before Advair Diskus
[4] = Baseline Day 1 predose, Day 14, both with Advair Diskus 250/50 BID
[5] = Baseline Day 1 predose, Day 21, both with Advair Diskus 250/50 BID
[6] = Baseline Day 1 predose, Day 28, both with Advair Diskus 250/50 BID
[7] = Baseline Day 1 predose, Day 35, both with Advair Diskus 250/50 BID

For `CCOc1ccc(-c2nc(-c3cccc(C(=O)O)n3)cs2)cc1OCC` [Tetomilast, 2-(3,4-diethoxyphenyl)-4-(2-carboxy-6-pyridyl)thiazole], the “differences in adverse events, serum chemistry, hematology, or urinalysis versus placebo” value ([1]; oral tetomilast with inhaled albuterol) was “no clinically meaningful differences”, the “changes in heart rate, systolic blood pressure, serum potassium, or QT interval versus placebo” value ([1]; oral tetomilast with relatively high doses of inhaled albuterol) was “No clinically meaningful changes” and the “effect on inhaled Advair Diskus 250/50 response (FEV1), exploratory repeated measures analysis” value ([2]; Advair Diskus 250/50 with tetomilast versus Advair Diskus 250/50 alone, days 8 through 35) was “possible potentiation of the effect of inhaled fluticasone propionate plus salmeterol”. The “Estimated Treatment Effect, change from baseline in peak FEV1 (tetomilast versus placebo)” value ([2]; Baseline Day 1 predose, Day 1, before Advair Diskus) was 0.08, the “Estimated Treatment Effect, change from baseline in trough FEV1 (tetomilast versus placebo)” value ([2]; Baseline Day 1 predose, Day 2, before Advair Diskus) was 0.11 and the “Estimated Treatment Effect, change from baseline in trough FEV1 (tetomilast versus placebo)” value ([2]; Baseline Day 1 predose, Day 3, before Advair Diskus) was 0.07. The “Estimated Treatment Effect, change from baseline in trough FEV1 (tetomilast versus placebo)” value ([2]; Baseline Day 1 predose, Day 4, before Advair Diskus) was 0.12, the “Estimated Treatment Effect, change from baseline in trough FEV1 (tetomilast versus placebo)” value ([2]; Baseline Day 1 predose, Day 5, before Advair Diskus) was 0.13 and the “Estimated Treatment Effect, change from baseline in trough FEV1 (tetomilast versus placebo)” value ([2]; Baseline Day 1 predose, Day 6, before Advair Diskus) was 0.11. For the same compound, the “Estimated Treatment Effect, change from baseline in peak FEV1 (tetomilast versus placebo)” value [2, 3] was 0.23, the “Estimated Treatment Effect, change from baseline in trough FEV1 (tetomilast versus placebo)” value [2, 3] was 0.13 and the “Estimated Treatment Effect, change from baseline in peak FEV1 (tetomilast versus placebo)” value [2, 4] was 0.21. The “Estimated Treatment Effect, change from baseline in trough FEV1 (tetomilast versus placebo)” value [2, 4] was 0.16, the “Estimated Treatment Effect, change from baseline in peak FEV1 (tetomilast versus placebo)” value [2, 5] was 0.30 and the “Estimated Treatment Effect, change from baseline in trough FEV1 (tetomilast versus placebo)” value [2, 5] was 0.18. For the same compound, the “Estimated Treatment Effect, change from baseline in peak FEV1 (tetomilast versus placebo)” value [2, 6] was 0.28, the “Estimated Treatment Effect, change from baseline in trough FEV1 (tetomilast versus placebo)” value [2, 6] was 0.21 and the “Estimated Treatment Effect, change from baseline in peak FEV1 (tetomilast versus placebo)” value [2, 7] was 0.21. For the same compound, the “Estimated Treatment Effect, change from baseline in trough FEV1 (tetomilast versus placebo)” value [2, 7] was 0.15, the “Estimated Treatment Effect, change from baseline in trough FEV1 (tetomilast versus placebo)” value ([2]; Baseline Day 7 predose, Day 14, both with Advair Diskus 250/50 BID) was 0.02 and the “Estimated Treatment Effect, change from baseline in trough FEV1 (tetomilast versus placebo)” value ([2]; Baseline Day 7 predose, Day 21, both with Advair Diskus 250/50 BID) was 0.05. For the same compound, the “Estimated Treatment Effect, change from baseline in trough FEV1 (tetomilast versus placebo)” value ([2]; Baseline Day 7 predose, Day 28, both with Advair Diskus 250/50 BID) was 0.06, the “Estimated Treatment Effect, change from baseline in trough FEV1 (tetomilast versus placebo)” value ([2]; Baseline Day 7 predose, Day 35, both with Advair Diskus 250/50 BID) was 0.02 and the “Estimated Treatment Effect in Baseline Mean trough FEV1, Day 7 predose (tetomilast versus placebo)” value ([2]; Day 7 predose, before Advair Diskus) was 0.38. The “Trough FEV1 compared with placebo” value ([2]; day-1 baseline, all time points through day-7 except day-3, and day-14 through day-35 (with Advair Diskus 250/50)) was “statistically significantly improved” and the “peak and average FEV1 improvements compared with placebo” value ([2]; days 7, 21 and 28, approached statistical significance at day 14 and day 35) was “statistically significant”.
